Among the data in ChEMBL document CHEMBL1136351, “Synthesis and DNA-binding affinity of A-C8/C-C2 alkoxyamido-linked pyrrolo[2,1-c][1,4]benzodiazepine dimers” (Bioorg Med Chem Lett, 2003) are ΔTm values, retold here.

Usually ΔTm stands for the change in melting temperature against a reference sample.

SMILES strings stand for the structures.

Common to all, as to assay type: functional
Conditions in all cases: Bos taurus

Assay [1] relates to Nucleic Acid. The assay can be described thus: Thermal denaturation in calf thymus DNA after incubation at 37 degree C for 18 hr at PBD/DNA 1:5 molar ratio.
For assay [2], the system named is Nucleic Acid. The assay can be described thus: Thermal denaturation in calf thymus DNA after incubation at 37 degrees C for 0h at PBD/DNA 1:5 molar ratio.
Assay [3] has as its system Nucleic Acid. The assay can be described thus: Thermal denaturation in calf thymus DNA after incubation at 37 degrees C for 18 hr at PBD/DNA 1:5 molar ratio.
For assay [4], the system named is Nucleic Acid. As to the kind of experiment: Thermal denaturation in calf thymus DNA after incubation at 37 degrees C Centigrade for 18 hr at PBD/DNA 1:5 molar ratio.

Turning to `COc1cc2c(cc1O)N=C[C@@H]1CCCN1C2=O`, the ΔTm in assay [1] was 0.7 °C; in assay [2] it was 0.3 °C.
As to `COc1cc2c(cc1OCCCC(=O)N[C@H]1C[C@H]3C=Nc4cc(OCc5ccccc5)c(OC)cc4C(=O)N3C1)N=C[C@@H]1CCCN1C2=O`, the ΔTm in assay [3] is 9.3 °C; in assay [2], 3.7 °C.
The like results for `COc1cc2c(cc1OCCCCC(=O)N[C@H]1C[C@H]3C=Nc4cc(OCc5ccccc5)c(OC)cc4C(=O)N3C1)N=C[C@@H]1CCCN1C2=O` were, in that order, 10.9 °C and 6.1 °C.
As for `COc1cc2c(cc1OCC(=O)N[C@H]1C[C@H]3C=Nc4cc(OCc5ccccc5)c(OC)cc4C(=O)N3C1)N=C[C@@H]1CCCN1C2=O`, the ΔTm in assay [4] came out at 4.7 °C; in assay [2], 0.9 °C.
